System: Boophilus microplus
Test: Boophilus microplus test (BOOPMI injection)
Type: in vivo
Details: 20 μg/animal, injected into the abdomen, after 7 days
Protocol: Solvent: Dimethyl Sulphoxide To produce a suitable preparation of active compound, 10 mg of active compound are mixed with 0.5 ml of solvent, and the concentrate is diluted with water to the desired concentration. The active compound solution is injected into the abdomen (Boophilus microplus) and the animals are transferred into dishes and stored in a climatized room. The activity is monitored for deposition of fertile eggs. After 7 days, the activity in % is determined. 100% means that none of the ticks has laid fertile eggs.

SMILES	activity (no deposition of fertile eggs)
COc1ccc(C=Nc2c(-c3cc(Cl)cc(C(F)(F)F)c3)c(C(F)(F)F)nn2-c2ncccn2)cc1 [Example 1-17]	100%
COc1nccnc1-n1nc(C(F)(F)C(F)F)c(-c2cc(Cl)c3c(c2)OCO3)c1N=Cc1ccccc1 [Example 2-13]	100%
COc1cc(C=Nc2c(-c3cc(Cl)cc(C(F)(F)F)c3)c(C(F)(F)F)nn2-c2nccnc2OC)cc(OC)c1OC [Example 2-16]	100%
COc1ccc(C=Nc2c(-c3cc(Cl)cc(C(F)(F)F)c3)c(C(F)(F)C(F)(F)F)nn2-c2ncccn2)cc1 [Example 1-41]	100%

System: Ctenocephalides felis
Test: Ctenocephalides felis oral (CTECFE)
Type: in vivo
Details: 100 ppm in citrated cattle blood, after 2 days
Protocol: Solvent: 1 part by weight of dimethyl sulphoxide To produce a suitable preparation of active compound, 10 mg of active compound are mixed with 0.5 ml of dimethyl sulphoxide. One part of the concentrate is diluted with citrated cattle blood, and the desired concentration is prepared. 20 unfed adult fleas (Ctenocephalides felis) are placed into a chamber whose top and bottom ends are closed with gauze. A metal cylinder whose bottom end is closed with parafilm is placed onto the chamber. The cylinder contains the blood/active compound preparation, which can be taken up by the fleas through the parafilm membrane. After 2 days, the kill in % is determined. 100% means that all fleas have been killed; 0% means that none of the fleas have been killed.

SMILES	kill
COc1ccc(C=Nc2c(-c3cc(Cl)cc(C(F)(F)F)c3)c(C(F)(F)F)nn2-c2ncccn2)cc1 [Example 1-17]	100%
COc1nccnc1-n1nc(C(F)(F)C(F)F)c(-c2cc(Cl)c3c(c2)OCO3)c1N=Cc1ccccc1 [Example 2-13]	100%
COc1ccc(C=Nc2c(-c3cc(Cl)cc(C(F)(F)F)c3)c(C(F)(F)C(F)(F)F)nn2-c2ncccn2)cc1 [Example 1-41]	100%

System: Lucilia cuprina larvae
Test: Lucilia cuprina test (LUCICU)
Type: in vivo
Details: 100 ppm, treated horse meat, after 2 days
Protocol: Solvent: Dimethyl Sulphoxide To produce a suitable preparation of active compound, 10 mg of active compound are mixed with 0.5 ml of dimethyl sulphoxide, and the concentrate is diluted with water to the desired concentration. Containers containing horse meat treated with the active compound preparation of the desired concentration are populated with Lucilia cuprina larvae. After 2 days, the kill in % is determined. 100% means that all larvae have been killed; 0% means that none of the larvae have been killed.

SMILES	kill
COc1ccc(C=Nc2c(-c3cc(Cl)cc(C(F)(F)F)c3)c(C(F)(F)F)nn2-c2ncccn2)cc1 [Example 1-17]	100%
COc1nccnc1-n1nc(C(F)(F)C(F)F)c(-c2cc(Cl)c3c(c2)OCO3)c1N=Cc1ccccc1 [Example 2-13]	100%
COc1cc(C=Nc2c(-c3cc(Cl)cc(C(F)(F)F)c3)c(C(F)(F)F)nn2-c2nccnc2OC)cc(OC)c1OC [Example 2-16]	100%
COc1ccc(C=Nc2c(-c3cc(Cl)cc(C(F)(F)F)c3)c(C(F)(F)C(F)(F)F)nn2-c2ncccn2)cc1 [Example 1-41]	100%

System: larvae of the mustard beetle (Phaedon cochleariae)
Test: Phaedon test (PHAECO spray treatment)
Type: in vivo
Details: 100 g/ha, after 7 days
Protocol: (§1) Solvents: 78.0 parts by weight of acetone • • 1.5 parts by weight of dimethyl formamide Emulsifier: 0.5 part by weight of alkylaryl polyglycol ether To produce a suitable preparation of active compound, 1 part by weight of active compound is mixed with the stated amounts of solvent and emulsifier, and the concentrate is diluted with emulsifier-containing water to the desired concentration. Discs of Chinese cabbage leaves (Brassica pekinensis) are sprayed with an active compound preparation of the desired concentration and, after drying, populated with larvae of the mustard beetle (Phaedon cochleariae). After 7 days, the activity in % is determined. 100% means that all beetle larvae have been killed; 0% means that none of the beetle larvae have been killed. The test was carried out and evaluated as described in Example B.4.

SMILES	activity (beetle larvae killed)
COc1ccc(C=Nc2c(-c3cc(Cl)cc(C(F)(F)F)c3)c(C(F)(F)F)nn2-c2ncccn2)cc1 [Example 1-17]	100%
COc1ccc(C=Nc2c(-c3cc(Cl)cc(C(F)(F)F)c3)c(C(F)(F)C(F)(F)F)nn2-c2ncccn2)cc1 [Example 1-41]	100%

System: caterpillars of the army worm (Spodoptera frugiperda)
Test: Spodoptera frugiperda test (SPODFR spray treatment)
Type: in vivo
Details: 100 g/ha, after 7 days
Protocol: as §1, with “maize” for “Chinese cabbage”, “(Zea mays)” for “(Brassica pekinensis)”, “caterpillars” for “larvae”, “army worm (Spodoptera frugiperda).” for “mustard beetle (Phaedon cochleariae).”, “caterpillars” for “beetle larvae”, “B.5.” for “B.4.”

SMILES	activity (caterpillars killed)
COc1ccc(C=Nc2c(-c3cc(Cl)cc(C(F)(F)F)c3)c(C(F)(F)F)nn2-c2ncccn2)cc1 [Example 1-17]	100%
COc1ccc(C=Nc2c(-c3cc(Cl)cc(C(F)(F)F)c3)c(C(F)(F)C(F)(F)F)nn2-c2ncccn2)cc1 [Example 1-41]	100%

System: greenhouse red spider mite (Tetranychus urticae)
Test: Tetranychus test, OP resistant (TETRUR spray treatment)
Type: in vivo
Details: 100 g/ha, after 6 days
Protocol: Solvents: 78.0 parts by weight of acetone • • 1.5 parts by weight of dimethyl formamide Emulsifier: 0.5 part by weight of alkylaryl polyglycol ether To produce a suitable preparation of active compound, 1 part by weight of active compound is mixed with the stated amounts of solvent and emulsifier, and the concentrate is diluted with emulsifier-containing water to the desired concentration. Discs of bean leaves (Phaseolus vulgaris) which are infested by all stages of the greenhouse red spider mite (Tetranychus urticae) are sprayed with an active compound preparation of the desired concentration. After 6 days, the activity in % is determined. 100% means that all spider mites have been killed; 0% means that none of the spider mites has been killed. The test was carried out and evaluated as described in Example B.7.

SMILES	activity (spider mites killed)
COc1ccc(C=Nc2c(-c3cc(Cl)cc(C(F)(F)F)c3)c(C(F)(F)F)nn2-c2ncccn2)cc1 [Example 1-17]	100%
COc1ccc(C=Nc2c(-c3cc(Cl)cc(C(F)(F)F)c3)c(C(F)(F)C(F)(F)F)nn2-c2ncccn2)cc1 [Example 1-41]	100%

System: adult Musca domestica
Test: Musca domestica test (MUSCDO)
Type: in vivo
Details: 20 ppm, treated sponge
Protocol: Solvent: Dimethyl sulphoxide To prepare a suitable preparation of active compound, 10 mg of active component are mixed with 0.5 ml of dimethyl sulphoxide, and the concentrate is diluted with water to the desired concentration. Vessels containing a sponge which had been treated with the active compound preparation of the desired concentration are populated with adult Musca domestica. After the desired period of time, the kill in % is determined. 100% means that all flies have been killed; 0% means that none of the flies have been killed.

SMILES	kill
COc1ccc(C=Nc2c(-c3cc(Cl)cc(C(F)(F)F)c3)c(C(F)(F)F)nn2-c2ncccn2)cc1 [Example 1-17]	100%

Same assay, conditions: 100 ppm, treated sponge

SMILES	kill
COc1nccnc1-n1nc(C(F)(F)C(F)F)c(-c2cc(Cl)c3c(c2)OCO3)c1N=Cc1ccccc1 [Example 2-13]	80%
COc1cc(C=Nc2c(-c3cc(Cl)cc(C(F)(F)F)c3)c(C(F)(F)F)nn2-c2nccnc2OC)cc(OC)c1OC [Example 2-16]	90%
COc1ccc(C=Nc2c(-c3cc(Cl)cc(C(F)(F)F)c3)c(C(F)(F)C(F)(F)F)nn2-c2ncccn2)cc1 [Example 1-41]	100%

System: Boophilus microplus strain Parkhurst (SP-resistant)
Test: Boophilus microplus test (DIP)
Type: in vivo
Details: 100 ppm
Protocol: Test animals: adult fed females of the Boophilus microplus strain Parkhurst (SP-resistant)
Solvent: Dimethyl sulphoxide
10 mg of active compound are dissolved in 0.5 ml of dimethyl sulphoxide. To produce a suitable formulation, the active compound solution is diluted with water to the particular desired concentration. This active compound preparation is pipetted into tubes. 8-10 ticks are transferred into a further tube provided with holes. The tube is dipped into the active compound preparation, with all ticks being wetted completely. After the liquid has run off, the ticks are transferred to filter discs in plastic dishes and kept in a climatized room. After the desired period of time, the activity is checked for deposition of fertile eggs. Eggs whose fertility is not visible from the outside are kept in glass tubes in a climatized cupboard under the larvae have hatched. An activity of 100% means that no tick has laid fertile eggs.

SMILES	activity (no deposition of fertile eggs)
COc1nccnc1-n1nc(C(F)(F)C(F)F)c(-c2cc(Cl)c3c(c2)OCO3)c1N=Cc1ccccc1 [Example 2-13]	100%
COc1cc(C=Nc2c(-c3cc(Cl)cc(C(F)(F)F)c3)c(C(F)(F)F)nn2-c2nccnc2OC)cc(OC)c1OC [Example 2-16]	100%

System: not listed separately
Test: logP by HPLC on reversed-phase columns (C 18), EU Guideline 79/831 Annex V.A8
Type: physicochemical
Details: ** LC-MS in the neutral range, pH 7.8, 0.001 molar aqueous ammonium bicarbonate and acetonitrile

SMILES	logP
COc1ccc(C=Nc2c(-c3cc(Cl)cc(C(F)(F)F)c3)c(C(F)(F)F)nn2-c2ncccn2)cc1 [Example 1-17]	4.98**
COc1nccnc1-n1nc(C(F)(F)C(F)F)c(-c2cc(Cl)c3c(c2)OCO3)c1N=Cc1ccccc1 [Example 2-13]	4.48**
COc1cc(C=Nc2c(-c3cc(Cl)cc(C(F)(F)F)c3)c(C(F)(F)F)nn2-c2nccnc2OC)cc(OC)c1OC [Example 2-16]	5.35**
COc1ccc(C=Nc2c(-c3cc(Cl)cc(C(F)(F)F)c3)c(C(F)(F)C(F)(F)F)nn2-c2ncccn2)cc1 [Example 1-41]	5.4**

From US8629273B2, “Diazinylpyrazolyl compounds” (Bayer Intellectual Property GmbH, priority 2009, dated 2014)
